Assay results as given in patent US20020022594A1, “Bax fragment induced tumor cell death” (priority 2000, published 2002).
Where a SMILES comes first, the peptide text is derived from it. [ ]: non-standard residue; d: D form. The star is where a group is joined. Nle = CCCC[C@H](N)C(=O)O; Cbz = O=C(OCc1ccccc1)*; CH2F = FC*

Tests used:
[1] = tested on: cell-free Bax cleavage activity (calpain-like) in whole cell extract of VP-16-treated Jurkat T cells; experiment: Cell-free Bax cleavage assay with protease inhibitors; format: biochemical, human; settings: 35S-labeled Bax, 2 hours
Protocol: Briefly, the ^35S-labeled Bax protein (1 μl) was incubated with 100 μg of a whole cell extract or a cytosol or mitochondrial fraction in an assay buffer (10 mM HEPES, pH 7.4, 5 mM MgCl2, 5 mM CaCl2, and 1 mM DTT), supplemented with ATP-regenerating system (0.1 mg/ml creatine kinase, 100 mM creatine phosphate, and 5 mM ATP) for 2 hours at 37° C. […] For inhibitor studies, 10 μM of calpain inhibitor-1 (LLnL), 10 μM of calpain inhibitor-2 (LLM), 20 μM of pan-caspase inhibitor Z-VAD-FMK, 20 μM of caspase-3 inhibitor Ac-DEVD-CMK, or 20 μM of the specific proteasome inhibitor castolactacystin, lactone was added in the Bax cleavage system.

Jurkat T cells [2] = experiment: Cytochrome c release from mitochondria to cytosol in drug-treated Jurkat T cells; format: cell-based, human
Protocol: (§1) The resulting supernatant was then centrifuged at 14,000×g for 30 minutes, followed by collection of both the supernatant and pellet fractions. […] The supernatant was further centrifuged at 600,000×g for 30 minutes and the resulting supernatant was collected as the cytosol fraction. To prepare a whole cell extract, cells were lysed in the lysis buffer, and the lysate was centrifuged at 14,000×g for 30 minutes.
(§2) The primary antibodies used were: monoclonal B9anti-Bax antibody (Santa Cruz Biotechnology, Santa Cruz, Calif.) at 1:500, monoclonal 6A7 anti-Bax antibody (Pharmingen, San Diego, Calif.) at 1:500, monoclonal anti-Bcl-2 antibody (Dako, Glostrup, Denmark) at 1:500, monoclonal anti-caspase-3 antibody (Onocogene, Cambridge, Mass.) at 1:200, monoclonal anti-cytochrome C antibody (Pharmingen) at 1:500, polyclonal anti-PARP antibody (Boehringer Manheim, Indianapolis, Ind.) at 1:3000, monoclonal anti-cytochrome oxidase unit 11 (COX) antibody (Molecular Probes, Eugene, Oreg.) at 1:200, and monoclonal anti-calpain 30 kDa subunit antibody (Chemicon, Temecula, Calif.) at 1:500.

Jurkat T cells [3] = experiment: Cell-free Bax cleavage activity in whole cell lysates of drug-treated Jurkat T cells; settings: VP-16 50 μM; absent in untreated cells
Jurkat T cells [4] = experiment: Apoptotic execution in drug-treated Jurkat T cells (caspase-3 processing, PARP cleavage, DNA fragmentation, TUNEL)
[5] = tested on: Neo cells (Jurkat T cells transfected with vector alone); experiment: VP-16 treatment of Neo (vector) Jurkat T cells; format: cell-based, human; settings: VP-16 50 μM
Protocol: (§3) MCF-7, Jurkat T. Neo and Bcl-2 cells were cultured in RPMI 1640 supplemented with 10% fetal calf serum, 100 units/ml of penicillin and 100 μg/ml of streptomycin at 37° C. in a humidified atmosphere consisting of 5% CO2 and 95% air. […] For the experiment using a specific calpain inhibitor, Jurkat T cells were pretreated for 1 hour with calpeptin at 10 μM, followed by a co-incubation with 50 μM of VP-16, as indicated in figure legends.
as §1
Briefly, the ^35S-labeled Bax protein (1 μl) was incubated with 100 μg of a whole cell extract or a cytosol or mitochondrial fraction in an assay buffer (10 mM HEPES, pH 7.4, 5 mM MgCl2, 5 mM CaCl2, and 1 mM DTT), supplemented with ATP-regenerating system (0.1 mg/ml creatine kinase, 100 mM creatine phosphate, and 5 mM ATP) for 2 hours at 37° C. […]

Jurkat T cells [6] = settings: VP-16 50 μM
[7] = tested on: Bcl-2 cells (Jurkat T cells overexpressing Bcl-2); experiment: VP-16 treatment of Bcl-2 overexpressing Jurkat T cells; settings: VP-16 50 μM
Jurkat T cells [8] = experiment: Calpeptin pre- and co-treatment of VP-16-treated Jurkat T cells; format: cell-based, human
Protocol: as §3, §1, §2

Bcl-2 = target: T1, Bcl-2 (Homo sapiens, UniProt P10415); experiment: Immunoprecipitation-Western blot assay of interaction with Bcl-2 in mitochondrial fraction; format: binding; settings: mitochondrial fraction of Jurkat T cells untreated or treated with VP-16 for 12 hours
T1 construct: the mitochondria fraction (500 μg of protein) from VP-16-treated or untreated Jurkat T cells; endogenous in cells; host or cells: Jurkat T cells, untreated or treated with VP-16 for 12 hours; mitochondrial membrane-enriched fraction
Protocol: Immunoprecipitation assay was performed as described previously (Fattman et al., 1997). Briefly, the mitochondria fraction (500 μg of protein) from VP-16-treated or untreated Jurkat T cells was incubated with a 5 μg of a monoclonal anti-human Bcl-2 antibody overnight at 4° C. The protein-antibody complex was then precipitated by incubating with 2 μl of Protein G plus Protein A agarose (Oncogene) for 1 hour at 4° C. and centrifuging at 2000×g at 4° C. for 1 hour. Both the precipitate and supernatant fractions were then analyzed by immunoblotting using the monoclonal B9 anti-human Bax antibody.

[9] = tested on: human breast cancer MCF-7; experiment: Transient transfection of Bax/p18 or Bax/p21 cDNA in MCF-7 cells; format: cell-based
Protocol: as §1
(§4) Bax/p18 cDNA was amplified by PCR with human Bax-α-cDNA as template using primer 5′-[…] (forward) and 5′-[…] (reverse) (Wood et al., 1998) and cloned into pcDNA3.0 between Hind III and Xho I restriction enzyme sites. Bax/p18 cDNA was verified by sequencing. MCF-7, Jurkat T. Neo and BcI-2 cells were transfected with pcDNA3.0 vector alone or pcDNA3.0 vector containing Bax/p18 or Bax/p21 cDNA using GenePORTER Transfection Reagent (Gene Therapy Systems, San Diego, Calif.) according to the manufacture's instructions. Briefly, 3 μg of plasmid DNA in 500 μl of RPMI 1640 medium was incubated for 30 minutes at room temperature with 25 μl of GenePORTER reagent in 500 μl of RPMI 1640 medium. The resultant GenePORTER-plasmid DNA mixture (1 ml) was then added into cells 2×10^6 cells in a well of a 6-well plate, followed by 5 hours incubation at 37° C. in a humidified atmosphere consisting of 5% CO2. […]

Jurkat T cells [10] = experiment: Transient transfection of Bax/p18 or Bax/p21 cDNA in Jurkat T cells; format: cell-based, human; settings: 48 hours after cDNA transfection
Protocol: as §1
as §4, with “CO2. After that, 1 ml of RPMI 1640 medium containing 20% fetal calf serum was added and the cells were further incubated for additional 43 hours before harvest.” for “CO2.”

[11] = calpeptin 10 μM pre- and co-treatment, VP-16 50 μM

T1 sequence (P10415 whole entry): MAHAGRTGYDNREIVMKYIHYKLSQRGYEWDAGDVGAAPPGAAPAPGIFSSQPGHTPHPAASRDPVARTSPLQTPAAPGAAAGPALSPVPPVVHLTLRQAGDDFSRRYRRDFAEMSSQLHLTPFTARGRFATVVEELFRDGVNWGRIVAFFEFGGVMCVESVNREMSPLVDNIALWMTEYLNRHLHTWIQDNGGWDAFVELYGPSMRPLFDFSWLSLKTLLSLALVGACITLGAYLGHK

Which “inhibition of cell-free Bax cleavage activity” value ([1]; inhibitor 20 μM) does the source give for `CC(=O)N[C@@H](CC(=O)O)C(=O)N[C@@H](CCC(=O)O)C(=O)N[C@H](C(=O)N[C@@H](CC(=O)O)C(=O)CCl)C(C)C` [Ac-DEVD-CMK] here?
The value was “partially inhibited”.

How did the “inhibition of cell-free Bax cleavage activity” value ([1]; inhibitor 10 μM) turn out when `CSCC[C@@H](C=O)NC(=O)[C@H](CC(C)C)NC(=O)[C@H](CC(C)C)NC(C)=O` [LLM, calpain inhibitor KK] (Ac-Leu-Leu-Met-aldehyde) was run?
The value was “completely inhibited”.

How did the “inhibition of cell-free Bax cleavage activity” value ([1]; inhibitor 10 μM) turn out when `CCCC[C@@H](C=O)NC(=O)[C@H](CC(C)C)NC(=O)[C@H](CC(C)C)NC(C)=O` [LLnL, calpain inhibitor I] (Ac-Leu-Leu-[Nle]-aldehyde) was run?
The value was “completely inhibited”.

Which “treatment time after which cytosolic cytochrome c appeared” value (Jurkat T cells [2]; VP-16 50 μM) does the source give for `COc1cc([C@@H]2c3cc4c(cc3[C@@H](O[C@@H]3O[C@@H]5CO[C@@H](C)O[C@H]5[C@H](O)[C@H]3O)[C@H]3COC(=O)[C@H]23)OCO4)cc(OC)c1O` [VP-16, Etoposide] here?
The value was 3 h.

What about the “treatment time at which cell-free Bax cleavage activity is present in cell extract” value (Jurkat T cells [3]) of the same compound?
Its value is ≥ 3 h.

What about the “time at which apoptotic execution phase began (caspase-3 processing/activation, PARP cleavage, DNA fragmentation)” value (Jurkat T cells [4]; VP-16 50 μM) of the same compound?
The value was 6 h.

What about the “earliest time of appearance of Bax/p18 and p36 bands” value [5] of the same compound?
The value was 3 h.

What about the “treatment time at which apoptosis was induced (caspase-3 processing, PARP cleavage)” value [5] of the same compound?
The value was ≥ 6 h.

And the “earliest time of Bax cleavage (Bax/p18 and p36 bands, B9 antibody)” value (Jurkat T cells [6])?
The value was 3 h.

And the “time at which autolysis of the calpain 30 kDa subunit began” value (Jurkat T cells [6])?
Its value is 3 h.

And the “delay of appearance of Bax/p18 and p36 bands versus Neo cells” value [7]?
Its value is 9 h.

What about the “delay of detection of cell-free Bax cleavage activity versus Neo cells” value [7] of the same compound?
The value was 9 h.

What about the “time after which caspase-3 processing and PARP cleavage were observed” value [7] of the same compound?
Its value is 24 h.

And the “time after which release of cytochrome c was detected” value [7]?
Its value is 12 h.

And the “time of appearance of Bax/p18 and p36 bands” value [7]?
The value was 12 h.

What about the “time of autolysis of calpain 30 kDa subunit (delayed from 3 hours in Neo cells)” value [7] of the same compound?
Its value is 12 h.

Which “inhibition of cell-free Bax cleavage activity” value ([1]; inhibitor 20 μM) does the source give for `COC(=O)C[C@H](NC(=O)[C@H](C)NC(=O)[C@@H](NC(=O)OCc1ccccc1)C(C)C)C(=O)CF` [Z-VAD-FMK] (Cbz-Val-Ala-Asp(OMe)-CH2F) here?
Its value is “partially inhibited”.

For `CCCC[C@@H](C=O)NC(=O)[C@H](CC(C)C)NC(=O)OCc1ccccc1` [calpeptin, Calpeptin], which “effect on VP-16-induced Bax cleavage” value (Jurkat T cells [8]; [11]) is on record?
The value was “delay”.

And the “effect on VP-16-induced release of cytochrome c from mitochondria to the cytosol” value (Jurkat T cells [8]; [11])?
Its value is “delay”.

And the “time of VP-16-induced caspase-3 processing and PARP cleavage with calpeptin (delayed from 6 hours)” value (Jurkat T cells [8]; [11])?
The value was 24 h.

And the “time of autolysis of the 30 kDa small subunit of calpain with calpeptin (delayed from 3 hours)” value (Jurkat T cells [8]; [11])?
The value was 24 h.

And the “apoptosis induction by the inhibitor itself” value (Jurkat T cells [8]; calpeptin 10 μM, 1 hour pretreatment, no VP-16)?
The value was “did not induce apoptosis”.

And the “inhibition of PARP cleavage at 24 hours” value (Jurkat T cells [8]; fresh calpeptin added at 18 hours after VP-16 treatment)?
The value was “complete inhibition”.

Which results are given for `CN[C@@H]1C[C@H]2O[C@@](C)([C@@H]1OC)n1c3ccccc3c3c4c(c5c6ccccc6n2c5c31)C(=O)NC4` [staurosporin]?
treatment time after which cytosolic cytochrome c appeared (Jurkat T cells [2]; staurosporin 1 μM): 3 h; time at which caspase-3 processing/activation, PARP cleavage and DNA fragmentation occurred (Jurkat T cells [4]; staurosporin 1 μM, up to 24 hours): ≥ 6 h

“Bax/p18: calpain-cleaved 18 kDa Bax fragment; the cloned Bax/p18 consists of amino acids 33-192 of Bax, expressed from transfected cDNA” was tested. Which “interaction with Bcl-2 (co-immunoprecipitation by anti-Bcl-2 antibody)” value (Bcl-2) did it give?
The value was “did not interact”.

What about the “cytochrome c-associated apoptotic events” value [9] of the same compound?
Its value is “release of cytochrome c, cleavage of PARP and fragmentation of DNA”.

What about the “caspase-3 processing/activation, PARP cleavage and DNA fragmentation” value (Jurkat T cells [10]) of the same compound?
The value was “detected”.

And the “release of cytochrome c” value (Jurkat T cells [10])?
Its value is “induced”.

With “Bax/p21: full-length Bax protein, endogenous or expressed from transfected Bax-α cDNA” as the compound, how does the “interaction with Bcl-2 (co-immunoprecipitation by anti-Bcl-2 antibody)” value (Bcl-2) read?
Its value is “co-immunoprecipitated”.

And the “cytochrome c-associated apoptotic events” value [9]?
The value was “did not induce”.

What about the “release of cytochrome c” value (Jurkat T cells [10]) of the same compound?
Its value is “not observed”.
